What all share (assay type): in vitro ADME
A short description of series [1]: Chemical inhibition in human hepatocytes (intrinsic clearance with and without CYP inhibitors). To be noted: human, human hepatocyte suspension. As for the experimental part: (§1) The contribution of CYPs to the metabolism of Compound 6 was evaluated in human hepatocyte suspension (about 500,000 cells/mL) (hepatocytes from BioIVT, Inc.) treated with or without azamulin (CYP3A4 mechanism-based inhibitor) or 1-aminobenzotriazole (ABT)/tienilic acid (a pan-CYP inhibitor regimen) for 30 minutes. The hepatocyte suspension with inhibitors was preincubated with 2× azamulin or 1-ABT/tienilic acid in Williams' media E and then added to 2× Compound 6 in media to give a final concentrations of 2.5 μM azamulin or 0.5 mM 1-ABT/1.5 μM tienilic acid and 0.5 μM Compound 6, respectively.
(§2) Final incubation volume was 25 μL. Samples were incubated in 384-well plates at 37° C. with 5% CO2 and gentle shaking. At each time point (0, 15, 30, 60, 120, and 240 minutes), samples in the incubation plates were quenched with acetonitrile:MeOH (95:5, v:v) with carbutamide as internal standard (quench ration 3:1). The samples were centrifuged, and the supernatant was analyzed using LC-MS/MS.
(§3) Quantitation of the substrate depletion in recombinant CYPs and FMO3 phenotyping, chemical inhibition in hepatocytes, and enzyme kinetics assays were analyzed by monitoring substrate depletion using LC-MS/MS.
(§4) The intrinsic clearance of Compound 6 in rCYP and hepatocytes was determined by integrating the parent peak on the chromatograms, and the extent of substrate depletion measured by comparing parent peak area loss over time. The elimination rate constant (k, transformation of % parent remaining versus incubation time: y=a*e^−(kt). Where y is the % parent remaining, t (min) is the time point within the incubation, and a is the % parent remaining at time 0 minute. From this, intrinsic clearance in rCYP (CLint, CYP, expressed in units of μL/min/pmol CYP) and in hepatocytes (CLint, hep, expressed in units of μL/min/million cells were derived using the equations below:
(§5) Clint,hep=k*1000/Cell Concentration (million cells/mL)
(§6) The fraction of metabolism inhibited by the chemical treatment in human hepatocytes was calculated using the equation:
(§7) fm,CYP=[Clint,hep(no inhibitor)−Clint,hep(PanCYP or azamulin])/[Clint, hep(no inhibitor)]

Series [2] relates to human hepatocyte suspension. The series is described as above. The procedure: as §1, §2, §3, §4, §5, §6, §7
The test system of series [3] is recombinant human CYP1A2, 2B6, 2C8, 2C9, 2C19, 2D6, 3A4, and FMO3. Briefly: Human recombinant CYP and FMO3 phenotyping. To be noted: of CYPs tested (1A2, 2B6, 2C8, 2C9, 2D6, 3A4) and FMO3. As for the experimental part: The involvement of CYPs and FMO3 in the metabolism of Compound 6 was evaluated using recombinant human CYP1A2, 2B6, 2C8, 2C9, 2C19, 2D6, 3A4, and FMO3 (CYPs and FMO3 from Corning Life Sciences). Incubations contained 0.5 μM of Compound 6, 100 pmol/mL of each CYP isoform, or 0.5 mg/mL of FMO3 isoform, and 1 mM NADPH cofactor in 50 mM potassium phosphate buffer at pH 7.4. All incubations were pre-warmed at 37° C. for 10 minutes, followed by addition of cofactor to initiate the reaction. Incubations were carried out for 60 minutes at 37° C. At each time point (0, 5, 10, 20, 30 and 60 minutes), an aliquot of sample in the incubation pleases was taken and dispersed into a quench plate containing 3-fold volume of acetonitrile and carbutamide as an internal standard. The samples were centrifuged, and the supernatant was analyzed using LC-MS/MS.
as §3
The intrinsic clearance of Compound 6 in rCYP and hepatocytes was determined by integrating the parent peak on the chromatograms, and the extent of substrate depletion measured by comparing parent peak area loss over time. […]

Where two headings read alike, the source gives them in different places.

With `C=CC(=O)N1CCN([C@@H]2CCNc3c2nn(-c2ccc(Oc4ccccc4)cc2)c3C(N)=O)CC1` [Example 6, (7R)-2-(4-phenoxyphenyl)-7-[4-(prop-2-enoyl)piperazin-1-yl]-4,5,6,7-tetrahydro-2H-pyrazolo[4,3-b]pyridine-3-carboxamide], the hepatocyte CLint at 0.5 μM in series [1] (0.5 μM Compound 6, 0.5 mM 1-ABT/1.5 μM tienilic acid, read-out: CLint, PAN CYP) was 8.23 µL/min/1e6 cells; in series [1] (0.5 μM Compound 6, no inhibitor, read-out: CLint, no inhibitor), 13.3 µL/min/1e6 cells; in series [1] (with 2.5 μM azamulin (CYP3A4 mechanism-based inhibitor), 0.5 μM Compound 6, 2.5 μM azamulin (CYP3A4 inhibitor), read-out: CLint, Azamulin), 9.15 µL/min/1e6 cells. The “% Total CYP Contribution In Vitro” value in series [2] (calculated from the PAN CYP inhibitor regimen of 1-ABT and tienilic acid, human hepatocyte suspensions) is 38.3%. Further, the “CYP contribution to the hepatic metabolism” value in series [2] (following incubation with a pan-CYP inhibitor cocktail in human hepatocytes) is “approximately 30%”. Further, the “% Inhibition by azamulin” value in series [2] (fraction of clearance in human hepatocytes inhibited by azamulin) came to 31.4%. Moreover, the “non-CYP hepatic enzymes contribution to the remaining clearance” value in series [2] (human hepatocytes) is “about 70%”. The “major contributing enzyme in metabolism” value in series [3] is “CYP3A4 was identified as the major contributing enzyme”.
